Experimental data taken from patent US8710043B2, “TRPM8 antagonists and their use in treatments” (Amgen Inc., priority 2011, dated 2014).

Target: T1, human TRPM8 (Homo sapiens, UniProt Q7Z2W7)
T1 construct: expressed in transfected cells; host or cells: Chinese hamster ovary (CHO) cells, T-REx tetracycline-inducible system, co-transfected with aequorin
Experiment: Luminescence readout assay for measuring intracellular calcium, icilin activation
Type: cell-based
Settings: CHO cells expressing human TRPM8, aequorin luminescence, 1 μM icilin activation; read-out: hTRPM8 IC50
Method in brief: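 The read-out was luminescence reporting intracellular calcium, recorded by a CCD-based luminometer. Compounds were preincubated for 2.5 min before agonist challenge with 1 μM icilin. Human TRPM8 was expressed in a stable T-REx CHO line, induced with 0.5 μg/mL tetracycline the day before.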

T1 sequence (Q7Z2W7 whole entry): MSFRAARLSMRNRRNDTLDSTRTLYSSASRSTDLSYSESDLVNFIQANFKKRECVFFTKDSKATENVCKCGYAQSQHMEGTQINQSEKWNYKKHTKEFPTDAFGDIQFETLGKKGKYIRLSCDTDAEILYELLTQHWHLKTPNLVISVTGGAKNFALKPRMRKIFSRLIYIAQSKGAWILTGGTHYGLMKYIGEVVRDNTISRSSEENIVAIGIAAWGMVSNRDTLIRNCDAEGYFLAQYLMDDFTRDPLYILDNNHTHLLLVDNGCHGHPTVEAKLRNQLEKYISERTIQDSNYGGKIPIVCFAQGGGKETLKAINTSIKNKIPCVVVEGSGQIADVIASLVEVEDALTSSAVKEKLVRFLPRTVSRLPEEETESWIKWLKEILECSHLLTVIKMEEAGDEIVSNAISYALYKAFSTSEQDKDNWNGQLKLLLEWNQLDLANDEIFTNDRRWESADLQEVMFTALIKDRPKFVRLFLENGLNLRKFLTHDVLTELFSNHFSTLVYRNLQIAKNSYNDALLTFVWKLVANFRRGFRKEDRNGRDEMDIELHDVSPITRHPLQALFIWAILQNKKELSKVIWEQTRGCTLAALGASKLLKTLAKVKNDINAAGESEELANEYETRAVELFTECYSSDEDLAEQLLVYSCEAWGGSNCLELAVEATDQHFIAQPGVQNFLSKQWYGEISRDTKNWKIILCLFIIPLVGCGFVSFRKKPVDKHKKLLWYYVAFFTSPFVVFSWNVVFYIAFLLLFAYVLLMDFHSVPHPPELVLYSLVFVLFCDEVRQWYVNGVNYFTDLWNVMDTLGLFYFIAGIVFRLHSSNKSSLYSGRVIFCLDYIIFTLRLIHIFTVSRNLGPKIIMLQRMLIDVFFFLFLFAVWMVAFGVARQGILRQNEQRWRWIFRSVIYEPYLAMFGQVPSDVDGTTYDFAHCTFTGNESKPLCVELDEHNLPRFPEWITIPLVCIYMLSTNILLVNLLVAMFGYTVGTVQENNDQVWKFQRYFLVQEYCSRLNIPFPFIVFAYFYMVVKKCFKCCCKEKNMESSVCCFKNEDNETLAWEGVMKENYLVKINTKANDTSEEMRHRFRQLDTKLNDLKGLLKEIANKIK

Row | SMILES | IC50 [nM]
1 | COc1cccc([C@H](NC(=O)c2ccc3cccnc3c2)c2ncccc2C(F)(F)F)c1 [Example 24, (S)-N-((3-methoxyphenyl)(3-(trifluoromethyl)pyridin-2-yl)methyl)quinoline-7-carboxamide] | 318
2 | Nc1cnccc1C(=O)N[C@@H](c1ccc(C(F)(F)F)cc1)c1ncccc1C(F)(F)F [Example 139, (S)-3-amino-N-((4-(trifluoromethyl)phenyl)(3-(trifluoromethyl)pyridin-2-yl)methyl)isonicotinamide] | 65.9
3 | Cc1cc([C@H](NC(=O)c2ccc(=O)[nH]c2)c2ncccc2F)cc(C(F)(F)F)c1 [Example 333, (S)-N-((3-fluoropyridin-2-yl)(3-methyl-5-(trifluoromethyl)phenyl)methyl)-6-oxo-l,6-dihydropyridine-3-carboxamide] | 658
4 | Nc1cccnc1C(=O)N[C@@H](c1ccc(C(F)(F)F)cc1)c1ncccc1C(F)(F)F [Example 144, (S)-3-amino-N-((4-(trifluoromethyl)phenyl)(3-(trifluoromethyl)pyridin-2-yl)methyl)picolinamide] | 200
5 | Cc1cccnc1[C@@H](NC(=O)c1ccc(-c2nc(=O)o[nH]2)cc1)c1ccc(C(F)(F)F)cc1 [Example 323, (S)-N-((3-methylpyridin-2-yl)(4-(trifluoromethyl)phenyl)methyl)-4-(5-oxo-2,5-dihydro-1,2,4-oxadiazol-3-yl)benzamide] | 36.7
6 | O=C(N[C@@H](c1ccc(C(F)(F)F)cc1)c1ncccc1C(F)(F)F)c1cccc(=O)[nH]1 [Example 63, (S)-6-oxo-N-((4-(trifluoromethyl)phenyl)(3-(trifluoromethyl)pyridin-2-yl)methyl)-1,6-dihydropyridine-2-carboxamide] | 134
7 | N#Cc1ccccc1C(=O)N[C@@H](c1ccc(C(F)(F)F)cc1)c1ncccc1C(F)(F)F [Example 197, (S)-2-cyano-N-((4-(trifluoromethyl)phenyl)(3-(trifluoromethyl)pyridin-2-yl)methyl)benzamide] | 115
8 | CC#Cc1cccnc1[C@@H](NC(=O)c1ccc(OC)cc1)c1ccc(C(F)(F)F)cc1 [Example 95, (S)-4-methoxy-N-((3-(prop-1-yn-1-yl)pyridin-2-yl)(4-(trifluoromethyl)phenyl)methyl)benzamide 2,2,2-trifluoroacetate] | 57.2
9 | O=C(N[C@@H](c1ccc(C(F)(F)F)cc1)c1ccccc1Br)c1ccc2ncccc2c1 [Example 256, (S)-N-((2-bromophenyl)(4-(trifluoromethyl)phenyl)methyl)quinoline-6-carboxamide 2,2,2-trifluoro acetate, 2,2,2-trifluoroacetate] | 302
10 | CN1C(=O)c2ccc(C(=O)N[C@@H](c3ccc(C(F)(F)F)cc3)c3ncccc3C(F)(F)F)cc2C1=O [Example 270, (S)-2-Methyl-1,3-dioxo-N-((4-(trifluoromethyl)phenyl)(3-(trifluoromethyl)pyridin-2-yl)methyl)isoindoline-5-carboxamide] | 19.1
11 | O=C(N[C@@H](c1ccc(C(F)(F)F)cc1)c1ncccc1F)c1ccc2ccc(=O)[nH]c2c1 [Example 125, (S)-N-((3-fluoropyridin-2-yl)(4-(trifluoromethyl)phenyl)methyl)-2-oxo-1,2-dihydroquinoline-7-carboxamide] | 176
12 | Cn1cc(C(=O)N[C@@H](c2ccc(Cl)c(Cl)c2)c2ncccc2F)ccc1=O [Example 251, (S)-N-((3,4-dichlorophenyl)(3-fluoropyridin-2-yl)methyl)-1-methyl-6-oxo-1,6-dihydropyridine-3-carboxamide 2,2,2-trifluoroacetate] | 19.3
13 | COc1cccc(C(=O)N[C@@H](c2ccc(C(F)(F)F)cc2)c2ncccc2C(F)(F)F)c1 [Example 191, (S)-3-methoxy-N-((4-(trifluoromethyl)phenyl)(3-(trifluoromethyl)pyridin-2-yl)methyl)benzamide] | 78.9
14 | O=C1Cc2ccc(C(=O)N[C@@H](c3ccc(C(F)(F)F)cc3)c3ncccc3C(F)(F)F)cc2N1 [Example 69, (S)-2-oxo-N-((4-(trifluoromethyl)phenyl)(3-(trifluoromethyl)pyridin-2-yl)methyl)indoline-6-carboxamide] | 12.9
15 | C=Cc1cccnc1[C@@H](NC(=O)c1ccc(=O)[nH]c1)c1ccc(C(F)(F)F)cc1 [Example 363, (S)-6-oxo-N-((4-(trifluoromethyl)phenyl)(3-vinylpyridin-2-yl)methyl)-1,6-dihydropyridine-3-carboxamide] | 29.5
16 | O=C(N[C@@H](c1ccc(OC(F)(F)F)cc1)c1ncccc1F)c1ccc2cccnc2c1 [Example 2, (S)-N-((3-fluoropyridin-2-yl)(4-(trifluoromethoxy)phenyl)methyl)quinoline-7-carboxamide] | 17
17 | Cn1ccnc1C(=O)N[C@@H](c1ccc(OC(F)(F)F)c(F)c1)c1ncccc1F [Example 387, (S)-N-((3-fluoro-4-(trifluoromethoxy)phenyl)(3-fluoropyridin-2-yl)methyl)-1-methyl-1H-imidazole-2-carboxamide 2,2,2-trifluoroacetate] | 279
18 | O=C(N[C@@H](c1ccc(C(F)(F)F)cc1)c1ncccc1F)c1ccc2cccnc2c1 (stereo in doubt) [Example 204, N-((3-fluoropyridin-2-yl)(4-(trifluoromethyl)phenyl)methyl)quinoline-7-carboxamide] | 104
19 | Cc1cc(F)cc([C@H](NC(=O)c2ccc(=O)n(C)c2)c2ncccc2F)c1 [Example 326, (S)-N-((3-fluoro-5-methylphenyl)(3-fluoropyridin-2-yl)methyl)-1-methyl-6-oxo-1,6-dihydropyridine-3-carboxamide] | 3210
20 | O=C(Cc1cccnc1)N[C@@H](c1ccc(C(F)(F)F)cc1)c1ncccc1C(F)(F)F [Example 238, (S)-2-(pyridin-3-yl)-N-((4-(trifluoromethyl)phenyl)(3-(trifluoromethyl)pyridin-2-yl)methyl)acetamide] | 547
21 | COc1cccc(C(NC(=O)c2ccc(=O)[nH]c2)c2ccc(OC(F)(F)F)c(F)c2)n1 (stereo not drawn) [Example 420, N-((3-fluoro-4-(trifluoromethoxy)phenyl)(6-methoxypyridin-2-yl)methyl)-6-oxo-1,6-dihydropyridine-3-carboxamide] | 118
22 | CC(=O)NC(C)C(=O)N[C@@H](c1ccc(C(F)(F)F)cc1)c1ncccc1C(F)(F)F (stereo partly drawn) [Example 162, 2-acetamido-N-((S)-(4-(trifluoromethyl)phenyl)(3-(trifluoromethriyl)pyridin-2-yl)methyl)propanamide] | 4380
23 | O=C(N[C@@H](c1ccc(C(F)(F)F)cc1)c1ncccc1C(F)(F)F)c1ccc2ncsc2c1 [Example 239, (S)-N-((4-(trifluoromethyl)phenyl)(3-(trifluoromethyl)pyridin-2-yl)methyl)benzo[d]thiazole-6-carboxamide] | 16
24 | O=C(N[C@@H](c1ccc(C(F)(F)F)cc1)c1ncccc1C(F)(F)F)c1ccc2nccn2c1 [Example 254, (S)-N-((4-(trifluoromethyl)phenyl)(3-(trifluoromethyl)pyridin-2-yl)methyl)imidazo[1,2-a]pyridine-6-carboxamide 2,2,2-trifluoroacetate] | 11.8
